Reference: patent US9464076B2, “Benzothiophene derivative” (Daiichi Sankyo Company, Limited, priority 2013, dated 2016)
Where a name gives a salt, the structure may show the parent alone.

What was measured:
[1] = target: PDE10A (H-PDE10A2, Human Phosphodiesterase 10A2) (Homo sapiens (Human), UniProt Q9Y233); experiment: Measurement of PDE10A inhibitory activity-1 (3H-cAMP, recombinant enzyme); type: biochemical; details: H-PDE10A2, 64 nM cAMP, 25° C., 2 hours
Experimental: To a solution containing 20 mM Tris-HCl (pH 7.5), 1 mM MgCl2, 100 μM EDTA, 330 μg/ml bovine serum albumin, 50 kU/ml 5′-nucleotidase, 0.1 μCi ^3H-cAMP (64 nM cAMP), and PDE10A (H-PDE10A2, Human Phosphodiesterase 10A2, Scottish Biomedical), a test compound was added, and the mixture was reacted at 25° C. for 2 hours. To the reaction solution, QAE-Sephadex (17-0190-01, GE Healthcare Japan Corp.) suspended in 10 mM HEPES-Na (pH 7.0) (hereinafter, also referred to as a “QAE-Sephadex suspension”) was added, and the mixture was shaken for 1 minute and left standing for 5 minutes to obtain a supernatant. To the supernatant, a QAE-Sephadex suspension was further added, and the mixture was shaken for 1 minute and left standing for 5 minutes. Then, the obtained supernatant was transferred to LumaPlate (PerkinElmer, Inc.) and assayed using a radiation counter (TopCount NXT, PerkinElmer, Inc.).
The value of the sample reacted without the addition of both a test compound and PDE10A was defined as 0%, and the value of the sample reacted in the presence of PDE10A without the addition of a test compound was defined as 100%.

Male C57BL/6 Cr mice = experiment: Test on suppression of phencyclidine-induced hyperlocomotion in mice; type: in vivo, mouse; details: Mus musculus, po, 1 h, locomotor activity, test compound 10 mg/kg oral, phencyclidine 5 mg/kg s.c. approx. 1 hour later, measured for 1 hour
Experimental: Male C57BL/6 Cr mice (Japan SLC, Inc.) (8 weeks old) were used in the experiment. A test compound was suspended at 1 mg/mL in a 0.5% hydroxypropylcellulose solution to prepare a suspension for administration. The suspension of the test compound or a solvent (0.5% hydroxypropylcellulose solution) was orally administered at a dose of 10 mL/kg to each mouse. After the administration, the mouse was immediately placed in a locomotor activity measurement apparatus (Muromachi Kikai Co., Ltd., locomotor activity measurement system SUPERMEX). Approximately 1 hour later, phencyclidine (5 mg/10 mL/kg) or a solvent (10 mL/kg saline) was subcutaneously administered to the mouse. The locomotor activity was measured from immediately after the subcutaneous administration to 1 hour later.
Percent inhibition exceeding 100 means that when the activity of the phencyclidine administration control group was defined as 100, the activity of the group given a test compound was lower than that of the solvent administration control group.

PDE10A = PDE10A (Homo sapiens (Human), UniProt Q9Y233); experiment: Measurement of PDE10A inhibitory activity-2 (PDE10A fraction prepared from MOLT-4 cells); type: biochemical; details: PDE10A fraction from MOLT-4 cells (peak around 250 mM NaCl)
Sequence of PDE10A (Q9Y233 whole entry): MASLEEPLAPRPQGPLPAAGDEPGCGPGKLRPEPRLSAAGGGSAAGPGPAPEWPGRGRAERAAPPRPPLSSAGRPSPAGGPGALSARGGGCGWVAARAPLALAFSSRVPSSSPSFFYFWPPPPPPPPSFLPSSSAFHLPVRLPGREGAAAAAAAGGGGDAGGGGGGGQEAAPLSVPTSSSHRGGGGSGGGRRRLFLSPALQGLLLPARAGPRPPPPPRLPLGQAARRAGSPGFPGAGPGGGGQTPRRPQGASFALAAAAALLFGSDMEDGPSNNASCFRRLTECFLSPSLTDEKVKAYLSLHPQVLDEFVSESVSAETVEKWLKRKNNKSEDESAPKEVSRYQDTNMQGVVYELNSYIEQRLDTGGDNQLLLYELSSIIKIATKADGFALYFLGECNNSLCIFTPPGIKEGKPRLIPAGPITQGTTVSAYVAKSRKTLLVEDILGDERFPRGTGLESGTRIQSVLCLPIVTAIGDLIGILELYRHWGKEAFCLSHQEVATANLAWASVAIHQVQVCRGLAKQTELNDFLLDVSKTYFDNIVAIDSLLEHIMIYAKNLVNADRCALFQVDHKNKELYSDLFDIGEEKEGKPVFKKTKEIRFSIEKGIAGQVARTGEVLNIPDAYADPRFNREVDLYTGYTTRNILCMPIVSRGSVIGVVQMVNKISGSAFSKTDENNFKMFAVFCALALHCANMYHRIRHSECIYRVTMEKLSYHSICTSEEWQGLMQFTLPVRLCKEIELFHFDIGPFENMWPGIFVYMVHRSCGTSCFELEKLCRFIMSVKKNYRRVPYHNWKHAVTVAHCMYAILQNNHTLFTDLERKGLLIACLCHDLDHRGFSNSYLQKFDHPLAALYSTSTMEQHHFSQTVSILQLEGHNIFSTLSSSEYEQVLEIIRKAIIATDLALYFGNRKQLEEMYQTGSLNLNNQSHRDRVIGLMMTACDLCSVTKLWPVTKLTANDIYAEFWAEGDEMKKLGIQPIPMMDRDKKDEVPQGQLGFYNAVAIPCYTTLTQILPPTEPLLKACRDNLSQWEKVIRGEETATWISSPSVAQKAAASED
In short: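 Enzyme source was a PDE10A-containing fraction from MOLT-4 cell soluble extract, resolved by HiTrap Q anion exchange with a 0–0.8 M NaCl gradient and selected by cAMP-hydrolysing activity. IC50 determined with this fraction by the same procedure as the preceding PDE10A assay.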

Sequence of PDE10A (H-PDE10A2, Human Phosphodiesterase 10A2) (Q9Y233 267-1055): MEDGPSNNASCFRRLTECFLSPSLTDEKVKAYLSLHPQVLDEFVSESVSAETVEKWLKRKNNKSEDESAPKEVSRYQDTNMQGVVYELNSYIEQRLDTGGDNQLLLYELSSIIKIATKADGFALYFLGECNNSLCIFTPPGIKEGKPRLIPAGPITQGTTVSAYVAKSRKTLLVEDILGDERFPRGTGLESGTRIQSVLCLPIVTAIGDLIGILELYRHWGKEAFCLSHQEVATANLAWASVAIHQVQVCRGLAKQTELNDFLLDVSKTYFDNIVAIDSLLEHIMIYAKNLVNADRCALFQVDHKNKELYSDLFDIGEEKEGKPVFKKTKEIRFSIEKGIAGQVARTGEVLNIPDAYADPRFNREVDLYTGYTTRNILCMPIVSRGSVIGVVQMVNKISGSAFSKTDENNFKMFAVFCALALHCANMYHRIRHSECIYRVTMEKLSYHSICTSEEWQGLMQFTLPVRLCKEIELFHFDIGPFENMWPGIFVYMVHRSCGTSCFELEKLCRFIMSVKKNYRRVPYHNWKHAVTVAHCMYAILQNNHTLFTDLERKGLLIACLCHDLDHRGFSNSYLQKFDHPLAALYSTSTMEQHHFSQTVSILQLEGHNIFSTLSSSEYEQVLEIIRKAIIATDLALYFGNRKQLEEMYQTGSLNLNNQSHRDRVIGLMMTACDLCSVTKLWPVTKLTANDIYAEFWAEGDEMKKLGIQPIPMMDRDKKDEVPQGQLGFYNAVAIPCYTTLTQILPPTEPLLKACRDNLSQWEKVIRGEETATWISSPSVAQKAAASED

Structure (SMILES)	inhibition in vivo at 10 mg/kg (Male C57BL/6 Cr mice)	IC50 (PDE10A)	also measured
COCc1ccc(C(C)=O)c2sc(C(=O)Nc3ccc4c(C(=O)N5CC(OC)C5)cccc4n3)c(C)c12 [Example 103, 7-Acetyl-N-(5-((3-methoxyazetidin-1-yl)carbonyl)quinolin-2-yl)-4-(methoxymethyl)-3-methylbenzo[b]thiophene-2-carboxamide hydrochloride]	–	–	IC50 ([1]; hydrochloride): 0.31 nM
COCc1ccc(C(C)=O)c2sc(C(=O)Nc3cc(C(C)(C)O)c4ccccc4n3)c(C)c12 [Example 27, 7-Acetyl-N-(4-(2-hydroxypropan-2-yl)quinolin-2-yl)-4-(methoxymethyl)-3-methylbenzo[b]thiophene-2-carboxamide hydrochloride]	–	–	IC50 ([1]; hydrochloride): 1.6 nM
CC(=O)c1ccc(C(C)=O)c2c(C)c(C(=O)Nc3cc(C(C)(C)O)c4ccccc4n3)sc12 [Example 3, 4,7-Diacetyl-N-(4-(2-hydroxypropan-2-yl)quinolin-2-yl)-3-methylbenzo[b]thiophene-2-carboxamide hydrochloride]	–	–	IC50 ([1]; hydrochloride): 5.9 nM
COCc1ccc(C(C)=O)c2sc(C(=O)Nc3ccc4c(CS(C)(=O)=O)cccc4n3)c(C)c12 [Example 109, 7-Acetyl-4-(methoxymethyl)-3-methyl-N-(5-((methylsulfonyl)methyl)quinolin-2-yl)benzo[b]thiophene-2-carboxamide]	–	–	IC50 [1]: 0.61 nM
CC(=O)c1ccc(C(C)=O)c2c(C)c(C(=O)Nc3cc(C(C)(C)O)c4ccccc4n3)sc12 [Example 4, 4,7-Diacetyl-N-(4-(2-hydroxypropan-2-yl)quinolin-2-yl)-3-methylbenzo[b]thiophene-2-carboxamide hydrobromide]	–	–	IC50 ([1]; hydrobromide): 5.8 nM
COCc1ccc(C(C)=O)c2sc(C(=O)Nc3cc(CN4CC[C@@H](O)C4)c4ccccc4n3)c(C)c12 [Example 41, (R)-7-Acetyl-N-(4-((3-hydroxypyrrolidin-1-yl)methyl)quinolin-2-yl)-4-(methoxymethyl)-3-methylbenzo[b]thiophene-2-carboxamide p-toluenesulfonate]	–	–	IC50 ([1]; p-toluenesulfonate): 1.3 nM
CC(=O)c1ccc(C(C)=O)c2c(C)c(C(=O)Nc3cc(C(C)(C)O)c4ccccc4n3)sc12 [Example 5, 4,7-Diacetyl-N-(4-(2-hydroxypropan-2-yl)quinolin-2-yl)-3-methylbenzo[b]thiophene-2-carboxamide semisulfate]	–	–	IC50 [1]: 11 nM
COCc1ccc(C(C)=O)c2sc(C(=O)Nc3ccc4c(C(=O)N5CC(OC)C5)cccc4n3)c(C)c12 [Example 107, 7-Acetyl-N-(5-((3-methoxyazetidin-1-yl)carbonyl)quinolin-2-yl)-4-(methoxymethyl)-3-methylbenzo[b]thiophene-2-carboxamide hydrobromide]	–	–	IC50 ([1]; hydrobromide): 0.73 nM
CC(=O)c1ccc(C(C)=O)c2c(C)c(C(=O)Nc3cc(C(C)(C)O)c4ccccc4n3)sc12 [Example 6, 4,7-Diacetyl-N-(4-(2-hydroxypropan-2-yl)quinolin-2-yl)-3-methylbenzo[b]thiophene-2-carboxamide methanesulfonate]	–	–	IC50 ([1]; methanesulfonate): 5.1 nM
COCc1ccc(C(C)=O)c2sc(C(=O)Nc3ccc4c(C(=O)N5CC(OC)C5)cccc4n3)c(C)c12 [Example 104, 7-Acetyl-N-(5-((3-methoxyazetidin-1-yl)carbonyl)quinolin-2-yl)-4-(methoxymethyl)-3-methylbenzo[b]thiophene-2-carboxamide benzenesulfonate]	–	–	IC50 ([1]; benzenesulfonate): 2.2 nM
COCc1ccc(C(C)=O)c2sc(C(=O)Nc3ccc4c(C(=O)N5CC(OC)C5)cccc4n3)c(C)c12 [Example 105, 7-Acetyl-N-(5-((3-methoxyazetidin-1-yl)carbonyl)quinolin-2-yl)-4-(methoxymethyl)-3-methylbenzo[b]thiophene-2-carboxamide methanesulfonate]	–	–	IC50 ([1]; methanesulfonate): 2.1 nM
COCc1ccc(C(C)=O)c2sc(C(=O)Nc3cc(CN4CC[C@@H](O)C4)c4ccccc4n3)c(C)c12 [Example 40, (R)-7-Acetyl-N-(4-((3-hydroxypyrrolidin-1-yl)methyl)quinolin-2-yl)-4-(methoxymethyl)-3-methylbenzo[b]thiophene-2-carboxamide hydrochloride]	–	–	IC50 ([1]; hydrochloride): 0.65 nM
COCc1ccc(C(C)=O)c2sc(C(=O)Nc3cc(C(C)(C)O)c4ccccc4n3)c(C)c12 [Example 26, 7-Acetyl-N-(4-(2-hydroxypropan-2-yl)quinolin-2-yl)-4-(methoxymethyl)-3-methylbenzo[b]thiophene-2-carboxamide]	84%	1.8 nM	–
COCc1ccc(C(C)=O)c2sc(C(=O)Nc3cc(CN4CCN(C)CC4)c4ccccc4n3)c(C)c12 [Example 125, 7-Acetyl-4-(methoxymethyl)-3-methyl-N-(4-((4-methylpiperazin-1-yl)methyl)quinolin-2-yl)benzo[b]thiophene-2-carboxamide]	86%	0.8 nM	–
CCc1c(C(=O)Nc2cc(CN3CC[C@@H](O)C3)c3ccccc3n2)sc2c(C(C)=O)ccc(COC)c12 [Example 42, (R)-7-Acetyl-3-ethyl-N-(4-((3-hydroxypyrrolidin-1-yl)methyl)quinolin-2-yl)-4-(methoxymethyl)benzo[b]thiophene-2-carboxamide]	85%	0.92 nM	–
COCc1ccc(C(C)=O)c2sc(C(=O)Nc3ccc4c(COP(=O)(O)O)cccc4n3)c(C)c12 [Example 87, (2-(7-Acetyl-4-(methoxymethyl)-3-methylbenzo[b]thiophene-2-carboxamido)quinolin-5-yl)methyl dihydrogen phosphate hydrochloride]	92%	0.6 nM	–
[2H]C([2H])([2H])OCc1cccc2nc(NC(=O)c3sc4c(C(C)=O)ccc(COC)c4c3C)ccc12 [Example 117, 7-Acetyl-4-(methoxymethyl)-N-(5-((^2H3)methoxymethyl)quinolin-2-yl)-3-methylbenzo[b]thiophene-2-carboxamide]	57%	0.61 nM	–
[2H]C([2H])([2H])OCc1ccc(C(C)=O)c2sc(C(=O)Nc3ccc4c(C(=O)N5CC(OC)C5)cccc4n3)c(C)c12 [Example 121, 7-Acetyl-N-(5-((3-methoxyazetidin-1-yl)carbonyl)quinolin-2-yl)-4-((^2H3)methoxymethyl)-3-methylbenzo[b]thiophene-2-carboxamide]	59%	0.57 nM	–
COCc1ccc(C(C)=O)c2sc(C(=O)Nc3ccc4c(COC(=O)CN)cccc4n3)c(C)c12 [Example 85, (2-(7-Acetyl-4-(methoxymethyl)-3-methylbenzo[b]thiophene-2-carboxamido)quinolin-5-yl)methyl-2-aminoacetate]	85%	1.1 nM	–
COCc1ccc(C(C)=O)c2sc(C(=O)Nc3cc(CN4CC(O)C4)c4ccccc4n3)c(C)c12 [Example 47, 7-Acetyl-N-(4-((3-hydroxyazetidin-1-yl)methyl)quinolin-2-yl)-4-(methoxymethyl)-3-methylbenzo[b]thiophene-2-carboxamide dihydrochloride]	73%	0.49 nM	–
COCc1ccc(C(C)=O)c2sc(C(=O)Nc3cc(N)c4ccccc4n3)c(C)c12 [Example 54, 7-Acetyl-N-(4-aminoquinolin-2-yl)-4-(methoxymethyl)-3-methylbenzo[b]thiophene-2-carboxamide]	68%	0.054 nM	–
COCc1ccc(C(C)=O)c2sc(C(=O)Nc3ccc4c(CN5CC(O)C5)cccc4n3)c(C)c12 [Example 65, 7-Acetyl-N-(5-((3-hydroxyazetidin-1-yl)methyl)quinolin-2-yl)-4-(methoxymethyl)-3-methylbenzo[b]thiophene-2-carboxamide dihydrochloride]	37%	0.39 nM	–
[2H]C([2H])(OC)c1ccc(C(C)=O)c2sc(C(=O)Nc3cc(C([2H])([2H])N4CC[C@@H](O)C4)c4ccccc4n3)c(C)c12 [Example 116, (R)-7-Acetyl-N-(4-((3-hydroxypyrrolidin-1-yl)(^2H2)methyl)quinolin-2-yl)-4-(methoxy(^2H2)methyl)-3-methylbenzo[b]thiophene-2-carboxamide]	180%	0.15 nM	–
